One assay relates to HT29. The assay is described as follows: NCI 60 cell panel SRB screen. Format: cell-based. The note with it: Homo sapiens, HT-29; for activity at 10 µM: HT29, single dose 10 μM, read-out: percent cell growth promotion; for GI50 / IC (TGI) / CC50: HT29, 5 log dose; for CC50: 48 h, read-out: LC50 (the source's name).
The next assay has as its system full NCI 60 cell panel. The assay is described as follows: NCI 60 cell panel SRB screen, whole panel. Format: cell-based, human. As to conditions: for activity at 10 µM / inhibition at 10 µM: Homo sapiens, 60 cell; for activity at 10 µM: mean over the panel, single dose 10 μM, read-out: Mean percent cell growth promotion; for cell growth inhibition, in words / inhibition at 10 µM: single dose 10 µM. The text has this:
Aiming to evaluate the general antitumour activity of the synthesised phthalazines, the structures of the final compounds were submitted to National Cancer Institute “NCI” (www.dtp.nci.nih.gov), Bethesda, Maryland, USA. In vitro NCI anticancer screening involves two-stage process, the first stage started with the evaluation of the selected candidates against the full NCI 60 cell lines panel representing leukaemia, non-small cell lung cancer, melanoma, colon, CNS, breast, ovarian, renal and prostate cancers at a single dose of 10 µM. NCI selection is based on degree of structure variation and application of computer modelling techniques to prioritise compounds based on their ability to add diversity to the NCI small molecule compound collection.
Eight compounds (6b, 6e, 7b, 13a, 13c, 16a, 16d and 17a) were selected by NCI for further 5 log dose screening against full NCI 60 cell panel. All the 60 cell lines, representing nine tumour subpanels (leukaemia, non-small cell lung cancer, colon cancer, CNS cancer, prostate cancer, melanoma, ovarian cancer, renal cancer and breast cancer) which were incubated at five different concentrations (0.01, 0.1, 1, 10 and 100 µM) of each of the test compounds. The outcomes were used to create log concentration vs % growth inhibition curves, then three response parameters (GI50, TGI and LC50) were calculated for each cell line, (Tables S4 and S5 in Supplementary material).
The human tumor cell lines of the cancer-screening panel were grown in RPMI 1640 medium containing 5% fetal bovine serum and […] L-glutamine. For a typical screening experiment, cells are inoculated into 96 well microtiter plates in 100 ml at plating densities ranging from 5000 to 40,000 cells/well depending on the doubling time of individual cell lines. After cell inoculation, the microtiter plates are incubated at 37 °C, 5% CO2, 95% air and 100%
relative humidity for 24 h prior to addition of experimental drugs. After 24 h, two plates of each cell line are fixed in situ with TCA, to represent a measurement of the cell population for each cell line at the time of drug addition (Tz). Experimental drugs are dissolved in dimethyl sulfoxide at 400-fold the desired final maximum test concentration and stored frozen prior to use. At the time of drug addition, an aliquot of frozen concentrate is thawed and diluted to twice the desired final maximum test concentration with complete medium containing […] Gentamicin. Additional four, 10-fold or ½log serial dilutions are made to provide a total of five drug concentrations plus control. Aliquots of […] of these different drug dilutions are added to the appropriate microtiter wells already containing 100 ml of medium, resulting in the required final drug concentrations. Following drug addition, the plates are incubated for an additional 48 h at 37 °C, 5% CO2, 95% air, and 100% relative humidity. For adherent cells, the assay is terminated by the addition of cold TCA. Cells are fixed in situ by the gentle addition of […] of cold 50% (w/v) TCA (final concentration,10% TCA) and incubated for 60 min at 4 °C. The supernatant is discarded, and the plates are washed five times with tap water and air dried. Sulforhodamine B (SRB) solution (100 ml) at 0.4% (w/v) in 1% acetic acid is added to each well, and plates are incubated for 10 min at room temperature. After staining, unbound dye is removed by washing five times with 1% acetic acid and the plates are air dried. Bound stain is subsequently dissolved with 10 μM trizma base, and the absorbance is read on an automated plate reader at a wavelength of 515 nm. For suspension cells, the methodology is the same except that the assay is terminated by fixing settled cells at the bottom of the wells by gently adding […] of 80% TCA (final concentration, 16% TCA). […]

Another assay deals with T1, VEGFR-2 tyrosine kinase (Homo sapiens, UniProt P35968).
T1 construct: purchased BPS Bioscience 40301
In words: In vitro VEGFR-2 tyrosine kinase assay (BPS Bioscience). It is filed as biochemical. As to conditions: read-out: VEGFR-2 % inhibition; 10 μM concentration. In outline: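 For IC50, ADP formation after a 30-min 30 °C reaction was detected by ADP-Glo luminescence in duplicate, blank-subtracted and fitted as log inhibitor versus normalised response. The 10 µM single-dose test instead measured remaining ATP (Kinase-Glo Plus) after 40 min at 30 °C with poly(Glu,Tyr) substrate, 10 μM ATP, pH 7.4, 1% DMSO.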

The mark [1] stands for this setting: read-out: cell growth inhibition against various cell lines.

Consider 6 compounds from publication PMC6691788, “Design and synthesis of phthalazine-based compounds as potent anticancer agents with potential antiangiogenic activity via VEGFR-2 inhibition” (Journal of Enzyme Inhibition and Medicinal Chemistry, 2019).

Structures are written as SMILES. Read-outs that look alike come from different tables or passages of the source.

T1 sequence (P35968 20-1356): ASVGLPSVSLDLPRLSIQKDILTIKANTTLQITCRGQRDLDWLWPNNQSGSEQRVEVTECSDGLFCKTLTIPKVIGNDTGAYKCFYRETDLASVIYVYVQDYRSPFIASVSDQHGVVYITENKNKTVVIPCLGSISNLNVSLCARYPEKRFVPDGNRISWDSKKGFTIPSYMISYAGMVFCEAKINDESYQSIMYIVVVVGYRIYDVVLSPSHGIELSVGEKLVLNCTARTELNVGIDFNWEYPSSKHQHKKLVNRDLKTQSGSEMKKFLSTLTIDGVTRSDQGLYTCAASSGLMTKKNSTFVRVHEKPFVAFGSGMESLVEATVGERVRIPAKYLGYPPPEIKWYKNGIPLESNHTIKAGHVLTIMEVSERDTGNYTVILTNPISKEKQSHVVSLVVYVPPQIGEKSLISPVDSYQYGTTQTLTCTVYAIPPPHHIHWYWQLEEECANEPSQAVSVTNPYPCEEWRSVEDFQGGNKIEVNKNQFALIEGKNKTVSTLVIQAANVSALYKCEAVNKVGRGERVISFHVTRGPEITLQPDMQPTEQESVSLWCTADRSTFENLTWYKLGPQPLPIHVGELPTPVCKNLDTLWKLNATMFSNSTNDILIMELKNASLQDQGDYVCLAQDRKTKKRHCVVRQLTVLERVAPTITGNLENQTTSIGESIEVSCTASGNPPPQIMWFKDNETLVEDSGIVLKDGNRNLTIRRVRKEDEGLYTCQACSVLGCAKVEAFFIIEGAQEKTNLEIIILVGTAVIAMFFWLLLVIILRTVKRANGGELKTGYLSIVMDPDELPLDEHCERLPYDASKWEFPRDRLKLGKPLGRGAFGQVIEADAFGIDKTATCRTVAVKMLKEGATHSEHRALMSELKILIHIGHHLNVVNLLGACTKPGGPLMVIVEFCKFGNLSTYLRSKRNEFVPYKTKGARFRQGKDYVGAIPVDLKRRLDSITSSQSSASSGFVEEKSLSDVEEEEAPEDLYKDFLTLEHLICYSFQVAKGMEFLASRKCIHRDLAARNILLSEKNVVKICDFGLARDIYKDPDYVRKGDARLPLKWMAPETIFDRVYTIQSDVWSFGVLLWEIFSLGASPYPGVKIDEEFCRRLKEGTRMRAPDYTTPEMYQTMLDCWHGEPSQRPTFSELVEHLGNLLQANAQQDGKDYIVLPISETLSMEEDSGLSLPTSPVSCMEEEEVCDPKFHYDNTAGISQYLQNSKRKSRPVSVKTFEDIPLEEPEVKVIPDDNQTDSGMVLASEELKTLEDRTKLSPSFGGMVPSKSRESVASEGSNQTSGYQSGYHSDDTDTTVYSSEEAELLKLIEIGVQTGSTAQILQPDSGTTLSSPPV

Broadly, the inhibition is the relative decrease from the control value, in per cent. For the compound `Cc1nnc(N2CCN(c3ccccn3)CC2)c2ccccc12` [Compound 8i, 1-Methyl-4–(4-(pyridin-2-yl)piperazin-1-yl)phthalazine], in the assay with HT29, the activity at 10 µM came to 91.2%. Besides, in the assay on full NCI 60 cell panel, the activity at 10 µM came out at 101%; the “cell growth inhibition, in words” value is “nor the piperazines (8a, 8d, 8f, 8g, 8h and 8i) showed any significant cell line growth inhibition”. The inhibition at 10 µM on VEGFR-2 tyrosine kinase came to 6%.

For orientation: GI50 means the concentration giving 50% growth inhibition. Lower therefore signals more potent growth inhibition. Turning to `O=C(Nc1ccccc1)Nc1ccc(Oc2nnc(Cl)c3ccccc23)cc1` [Compound 13a, 1–(4-(4-Chlorophthalazin-1-yloxy)phenyl)-3-phenylurea], in the assay on HT29, the GI50 was determined as 5.26 µM, the IC (TGI) was greater than 25 µM, the CC50 was greater than 25 µM and the activity at 10 µM stood at 23.8%. In the assay with full NCI 60 cell panel, the activity at 10 µM stood at 24.1%. Further, in the assay on full NCI 60 cell panel (setting [1]), the inhibition at 10 µM is greater than 90%. Further, the inhibition at 10 µM at VEGFR-2 tyrosine kinase turned out to be 24%.

For `O=C(Nc1ccc(Cl)cc1)Nc1ccc(Oc2nnc(Cl)c3ccccc23)cc1` [Compound 13b, 1–(4-Chlorophenyl)-3–(4-(4-chlorophthalazin-1-yloxy)phenyl)urea], the activity at 10 µM in the assay on HT29 turned out to be 95.8%. Besides, in the assay with full NCI 60 cell panel, the activity at 10 µM was found to be 88.7% and the “cell growth inhibition, in words” value is given as “did not show any significant cell line growth inhibition”. Besides, the inhibition at 10 µM at VEGFR-2 tyrosine kinase is 38%.

In the case of `Clc1ccc(Nc2nnc(CNc3ccccc3)c3ccccc23)cc1` [Compound 16a, N-(4-Chlorophenyl)-4-((phenylamino)methyl)phthalazin-1-amine], in the assay on HT29, growth was halved (GI50) at 1.46 µM, the IC (TGI) was 6.36 µM, the CC50 turned out to be 21.2 µM and the activity at 10 µM turned out to be 0.55%. Further, the activity at 10 µM with full NCI 60 cell panel is 10.7%. The inhibition at 10 µM with full NCI 60 cell panel (setting [1]) is greater than 90%. The inhibition at 10 µM on VEGFR-2 tyrosine kinase came out at 47%.

Turning to `COc1cccc(NCc2nnc(Nc3ccc(Cl)cc3)c3ccccc23)c1` [Compound 16d, N-(4-Chlorophenyl)-4-((3-methoxyphenylamino)methyl)phthalazin-1-amine], in the assay on HT29, the GI50 is 0.34 µM, the IC (TGI) was 3.62 µM, the CC50 turned out to be 12 µM and the activity at 10 µM was -21%. In addition, the activity at 10 µM in the assay on full NCI 60 cell panel is -16%. The inhibition at 10 µM with full NCI 60 cell panel (full panel, read-out: mean growth inhibition) came to 116%. Further, in the assay with full NCI 60 cell panel (setting [1]), the inhibition at 10 µM was greater than 90%. In addition, the inhibition at 10 µM at VEGFR-2 tyrosine kinase stood at 24%.

With `Clc1ccc(Nc2nnc(COc3ccccc3)c3ccccc23)cc1` [Compound 17a, N-(4-Chlorophenyl)-4-(phenoxymethyl)phthalazin-1-amine], in the assay on HT29, the GI50 amounted to 0.42 µM, the IC (TGI) worked out at 4.25 µM, the CC50 came to 17.4 µM and the activity at 10 µM was 1.32%. Besides, in the assay with full NCI 60 cell panel, the activity at 10 µM is -4.07%. Further, the inhibition at 10 µM in the assay with full NCI 60 cell panel (setting [1]) is greater than 90%. Besides, the inhibition at 10 µM at VEGFR-2 tyrosine kinase is 31%.
